Source: patent US10195208B2, “Combination therapy” (Novartis AG, priority 2014, dated 2019)
“And” between values parts separate entries of the source, which are not always exact repeats. Identical values can stand only once.

How the values were obtained:
[1] = Tolerability (body weight) in Compound A resistant HCC827 mouse xenograft model; conditions: for Final BW (g) mean ± SD: day 14; for BW (%) mean, percent body weight change: day 14 versus day of treatment initiation
Method: INC280-AA-3 was formulated in 0.25% MC (methylcellulose) 0.05% Tween 80 in water, solution. […] Animals were weighed on dosing days and doses were body weight adjusted. Tumor volumes were measured by digital caliper 3 times a week and body weights of all animals were recorded throughout the study.
Body weight was monitored daily and the % change in body weight was calculated as (BWcurrent−BWinitial)/(BWinitial)×100. Data is presented as percent body weight change from the day of treatment initiation.

HCC827 = assay: Cell proliferation assay (CellTiter-Glo), dose matrix combination, HCC827 parental; format: cell-based, human; conditions: HCC827 parental line, 72 hours
Method: HCC827 was obtained from ATCC. HCC827 GR5 (resistant to Gefitinib) was obtained from Jeff Engleman lab at Massachusetts General Hospital. Both cells were cultured in RPMI-1640 (ATCC, #30-2001) with 10% FBS (Thermo scientific, #SH30071.03) and maintained in a 37° C., 5% CO2 incubator. Cells were passaged twice a week using TrypLE™ Express (Invitrogen, #12604-013), an animal origin-free recombinant enzyme used for dissociating adherent mammalian cells compare to the regular trypsin.
Cell viability was determined by measuring cellular ATP content using the CellTiter-Glo® (CTG) luminescent cell viability assay (Promega #G7573) according to the manufacturer's protocol. […] At the end of the drug treatment, 100 ul CTG reagent was added to each well to lyse the cells, and luminescence signals were recorded in the Envision plate reader (Perkin Elmer).
To evaluate the combination effect in a non-bias way and to identify synergistic effect at all possible concentrations, the combination studies were conducted with a “dose matrix”, where a combination is tested in all possible permutations of serially-diluted compounds. […] The synergistic interaction was analyzed using Chalice software (CombinatoRx, Cambridge Mass.). Synergy was calculated by comparing a combination's response to those of its single agents, against the drug-with-itself dose-additive reference model. […]

[2] = tested on: Compound A resistant NSCLC HCC827 tumor; assay: Efficacy study in Compound A resistant HCC827 mouse xenograft model (GNF-11-308-138); format: in vivo, SCID beige mice; conditions: for Individual tumor volume: single animals; for Tumor volume, group Mean: n=6; for Mean initial Tumor Volume (mm^3 ± SE): initial day of dosing
[3] = tested on: EGFR and cMET phosphorylation; assay: Acute PD western blot of pEGFR and pMET in resistant NCI-HCC827 tumors; format: in vivo, SCID beige mice; conditions: single dose; Compound A 30 mg/kg, INC280 10 mg/kg; tumors taken 6 hours post dose
Source text: SCID beige mice bearing the Erlotinib resistant tumors (Animals 2-5), n=1 per group, a total of 4 groups and randomized 50 days post tumor fragment implantation with an average tumor volume of 1236.18 mm^3 and SD of 316.57 mm^3. Compound A resistant HCC827 tumors ([…]) were randomized into 4 groups (n=3 mice per group) 24 days post tumor fragment implantation with an average tumor volume of 963.24 mm^3 with SD 179.56 mm^3. Animals in each group received once daily oral administration of Compound A at 30 mg/kg or twice daily INC280-AA-3 at 10 mg/kg alone or in combination.
Evaluation of target inhibition of pEGFR and pMET were done by western blot analysis. 40 […] of tumor lysate proteins were electrophoresed per sample using Criterion 4-12% Bis-Tris gels (Bio-Rad, Cat #345-0124). Upon completion of protein transfer, membranes were incubated with 5% BSA (Sigma) in TBST (25 mM Tris, 150 mM NaCl, 0.1% Tween-20) for 1 h at room temperature to block non-specific binding. […]

[4] = Compound A 30 mg/kg QD, INC280 10 mg/kg BID
[5] = day 0 post dosing (day 22 post implant)
[6] = day 2 post dosing (day 24 post implant)
[7] = day 5 post dosing (day 27 post implant)
[8] = day 7 post dosing (day 29 post implant)
[9] = day 9 post dosing (day 31 post implant)
[10] = day 12 post dosing (day 34 post implant)
[11] = day 14, Compound A 30 mg/kg QD, INC280 10 mg/kg BID, oral
[12] = day 14 post dosing (day 36 post implant)
[13] = Compound A 30 mg/kg QD, INC280 10 mg/kg BID, oral

Cc1cc(C(=O)Nc2nc3cccc(Cl)c3n2[C@@H]2CCCCN(C(=O)/C=C/CN(C)C)C2)ccn1 [Compound A, (R,E)-N-(7-chloro-1-(1-(4-(dimethylamino)but-2-enoyl)azepan-3-yl)-1H-benzo[d]imidazol-2-yl)-2-methylisonicotinamide]
Final BW (g) mean ± SD [1, 4]: 22.58 ± 1.00 g
BW (%) mean, percent body weight change [1]: 5.39%
Initial BW (g) mean ± SD [1, 4]: 21.43 ± 0.77 g
single agent response, cell viability (HCC827): only respond to Compound A
anti-tumor activity in words ([2]; 14 days, Compound A 30 mg/kg QD, INC280 10 mg/kg BID, oral, versus vehicle): not significantly different from vehicle
Individual tumor volume [2, 5]: 470.34 mm^3 and 502.24 mm^3 and 547.37 mm^3 and 597.98 mm^3 and 657.77 mm^3 and 694.21 mm^3
Tumor volume, group Mean ([2]; day 0 post dosing): 578.32 mm^3
Individual tumor volume [2, 6]: 425.76 mm^3 and 474.70 mm^3 and 500.47 mm^3 and 718.94 mm^3 and 679.81 mm^3 and 723.63 mm^3
Tumor volume, group Mean ([2]; day 2 post dosing): 587.22 mm^3
Individual tumor volume [2, 7]: 447.17 mm^3 and 509.01 mm^3 and 478.72 mm^3 and 709.28 mm^3 and 723.82 mm^3 and 730.32 mm^3
Tumor volume, group Mean ([2]; day 5 post dosing): 599.72 mm^3
Individual tumor volume [2, 8]: 641.63 mm^3 and 591.63 mm^3 and 523.15 mm^3 and 792.15 mm^3 and 837.06 mm^3 and 800.58 mm^3
Tumor volume, group Mean ([2]; day 7 post dosing): 697.70 mm^3
Individual tumor volume [2, 9]: 595.65 mm^3 and 822.67 mm^3 and 611.23 mm^3 and 877.37 mm^3 and 891.82 mm^3 and 940.84 mm^3
Tumor volume, group Mean ([2]; day 9 post dosing): 789.93 mm^3
Individual tumor volume [2, 10]: 932.76 mm^3 and 885.77 mm^3 and 742.37 mm^3 and 1125.55 mm^3 and 1019.63 mm^3 and 1028.22 mm^3
Tumor volume, group Mean ([2]; day 12 post dosing): 955.72 mm^3
Mean final Tumor Volume (mm^3 ± SE) [2, 11]: 1063.26 ± 93.45 mm^3
Individual tumor volume [2, 12]: 882.62 mm^3 and 1115.99 mm^3 and 727.98 mm^3 and 1076.46 mm^3 and 1368.14 mm^3 and 1208.36 mm^3
Tumor volume, group Mean ([2]; day 14 post dosing): 1063.26 mm^3
Mean initial Tumor Volume (mm^3 ± SE) [2, 13]: 578.32 ± 35.84 mm^3
inhibition of EGFR and cMET phosphorylation in tumor lysates (western) [3]: selective depletion of pEGFR and pMET expression

CNC(=O)c1ccc(-c2cnc3ncc(Cc4ccc5ncccc5c4)n3n2)cc1F [INC280, 2-fluoro-N-methyl-4-[(7-quinolin-6-yl-methyl)-imidazo[1,2-b]triazin-2-yl]benzamide]
tolerability in words ([1]; 14 day treatment, Compound A 30 mg/kg QD, INC280 10 mg/kg BID): well tolerated for rest of the study
group body weight change ([1]; day 7): −8.5%
group body weight change ([1]; day 8): −5.66%
Final BW (g) mean ± SD [1, 4]: 19.95 ± 1.58 g
BW (%) mean, percent body weight change [1]: −3.83%
Initial BW (g) mean ± SD [1, 4]: 20.74 ± 0.79 g
Individual tumor volume [2, 5]: 456.20 mm^3 and 520.06 mm^3 and 543.63 mm^3 and 640.13 mm^3 and 655.67 mm^3 and 713.33 mm^3
Tumor volume, group Mean ([2]; day 0 post dosing): 588.17 mm^3
Individual tumor volume [2, 6]: 531.11 mm^3 and 641.24 mm^3 and 502.64 mm^3 and 784.24 mm^3 and 667.19 mm^3 and 674.14 mm^3
Tumor volume, group Mean ([2]; day 2 post dosing): 633.43 mm^3
Individual tumor volume [2, 7]: 869.50 mm^3 and 753.37 mm^3 and 556.93 mm^3 and 822.50 mm^3 and 628.26 mm^3 and 834.83 mm^3
Tumor volume, group Mean ([2]; day 5 post dosing): 744.23 mm^3
Individual tumor volume [2, 8]: 690.94 mm^3 and 653.24 mm^3 and 589.97 mm^3 and 675.03 mm^3 and 699.40 mm^3 and 627.01 mm^3
Tumor volume, group Mean ([2]; day 7 post dosing): 655.93 mm^3
Individual tumor volume [2, 9]: 646.47 mm^3 and 649.16 mm^3 and 572.94 mm^3 and 510.69 mm^3 and 613.71 mm^3 and 594.99 mm^3
Tumor volume, group Mean ([2]; day 9 post dosing): 597.99 mm^3
Individual tumor volume [2, 10]: 688.69 mm^3 and 617.11 mm^3 and 487.07 mm^3 and 531.80 mm^3 and 432.97 mm^3 and 585.67 mm^3
Tumor volume, group Mean ([2]; day 12 post dosing): 557.22 mm^3
Mean T/C (percent treated versus control; negative = regression) [2, 11]: 23%
Mean final Tumor Volume (mm^3 ± SE) [2, 11]: 760.84 ± 81.62 mm^3
Individual tumor volume [2, 12]: 1030.71 mm^3 and 948.57 mm^3 and 521.81 mm^3 and 674.65 mm^3 and 598.62 mm^3 and 790.69 mm^3
Tumor volume, group Mean ([2]; day 14 post dosing): 760.84 mm^3
Mean initial Tumor Volume (mm^3 ± SE) [2, 13]: 588.17 ± 39.56 mm^3
inhibition of EGFR and cMET phosphorylation in tumor lysates (western) [3]: selective depletion of pEGFR and pMET expression
